A short description of series [1]: Laser stability / photobleaching of dye on laser exposure. It counts as physicochemical. The protocol:
An 813-nm diode laser source at 1.2W (1.9A) (Opto Power Corp., Tucson, Ariz.) was used to heat a 10-μL volume of near-IR dye at a concentration (0.1 mg/mL for 785 WS, 0.2 mg/mL for SDA 8080) to yield a 35° C. rise in temperature. The laser was manually turned on long enough for the temperature in a 10-μL well to increase by 35° C. (1-3 seconds) and was manually turned off when that level was attained. The temperature data was obtained using a thermocouple in the well, and the transmittance data was obtained via a power meter whose signals were digitized and graphically interpreted.
In another experiment, the 10 μL well was used to see if the dye/surfactant mixture could withstand laser cycling over a period of 30 cycles. The laser power was systematically varied from 60° C. to 94° C., 30 times.
Unlike in Example 8, some dyes and dye/surfactant complexes undergo photodegradation when exposed to laser beam. […] Specifically, in the case of 785 WS/BRIJ-97, the addition of ascorbic acid (typically 5 mg/mL) helped reduce the amount of photobleaching from 100% to 20% after 30 cycles. In some circumstances, rapid/controlled photodegradation may be desired. […] This would allow DNA tags (fluorescent or vis/IR) to be monitored at the end of the PCR reaction.

In another series the target is T1, AMPLITAQ DNA polymerase (Thermus aquaticus, UniProt P19821).
T1 construct: purchased Applied Biosystems, Foster City, Calif
The series can be described thus: PCR amplification of PERV protease fragment in the presence of dye/surfactant mixture. It counts as biochemical. Particulars: dye at 0.1 or 0.2 mg/mL, agarose gel. The protocol:
Typically, a fresh stock solution of 5 milligrams (mg) of a water-insoluble near-infrared dye (NIR dye) was dissolved in 50 microliters (μL) of dimethylsulfoxide (DMSO) and brought up in water to a final volume of 1 milliliter (mL). This was then diluted out to various concentrations of dye. The diluted dye (typically 0.2 mg/mL) was then added to a surfactant solution (typically 4 wt-%) to form a complex. The complex was added to a PCR reaction.
PCR reactions were set up for a conserved sequence (327 bp) in the protease region of the genome of porcine endogenous retrovirus using a plasmid containing the PERV protease fragment, a forward primer and a reverse primer designed using a primer express program from Applied Biosystems, and AMPLITAQ DNA polymerase cocktail (commercially available from Applied Biosystems, Foster City, Calif.) and cycled in a thermocycler (9700, Applied Biosystems). The PCR reactions were typically carried out in 25-μL volumes. The NIR dye/surfactant mixture was added to the PCR cocktail to give the desired concentration of dye and surfactant in a total volume of 25 μL. […]
In order to find out the optimum concentration of surfactant for PCR with NIR dye (785 WS and SDA 8080), the surfactant concentration in PCR reaction was varied from 0.1 wt-% to 4 wt-%. The PCR product formed was quantitated using DNA 7500 Labchip kit in Agilent 2100 Bioanalyzer (Agilent Inc, Paloalto, Calif.). […]
A variety of dyes (NIR dyes such as IR782, IR768, SDA 2141, SDA8327, IR 830 WS, fluorescent dyes like oligreen and visible dyes like dichlorophenol, indophenol, saffranin, crystal violet, and commercially available food coloring) at typical concentrations of 0.1 or 0.2 mg/mL were allowed to interact with 4 wt-% PLURONIC F127 and each mixture was added to the PCR cocktail. The reaction was set up to amplify PERV protease fragment as described in Example 2 and the products of the reaction were analyzed by agarose gel electrophoresis.

T1 sequence (P19821 whole entry): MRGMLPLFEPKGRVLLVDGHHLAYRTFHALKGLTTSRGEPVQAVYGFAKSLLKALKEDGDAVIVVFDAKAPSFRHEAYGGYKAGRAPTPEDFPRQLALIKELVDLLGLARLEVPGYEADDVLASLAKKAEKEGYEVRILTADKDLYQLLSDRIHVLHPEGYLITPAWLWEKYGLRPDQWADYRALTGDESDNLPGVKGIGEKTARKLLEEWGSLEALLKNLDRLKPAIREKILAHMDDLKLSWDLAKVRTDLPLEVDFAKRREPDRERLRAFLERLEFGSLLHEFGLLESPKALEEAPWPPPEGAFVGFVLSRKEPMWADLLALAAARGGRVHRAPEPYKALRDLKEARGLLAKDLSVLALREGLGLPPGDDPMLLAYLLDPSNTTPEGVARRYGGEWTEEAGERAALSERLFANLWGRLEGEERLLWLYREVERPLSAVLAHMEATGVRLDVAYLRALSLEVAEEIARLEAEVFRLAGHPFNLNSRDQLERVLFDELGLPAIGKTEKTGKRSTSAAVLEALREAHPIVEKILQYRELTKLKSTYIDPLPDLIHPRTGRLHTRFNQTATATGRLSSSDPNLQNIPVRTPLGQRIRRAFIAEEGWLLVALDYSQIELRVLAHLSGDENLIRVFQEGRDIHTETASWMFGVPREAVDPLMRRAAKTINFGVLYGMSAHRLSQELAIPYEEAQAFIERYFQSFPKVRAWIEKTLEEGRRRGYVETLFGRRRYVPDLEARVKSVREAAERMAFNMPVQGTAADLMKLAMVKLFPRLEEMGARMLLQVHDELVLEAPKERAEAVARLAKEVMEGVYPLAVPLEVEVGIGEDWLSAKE

In the case of `O=C1O[C@H]([C@@H](O)CO)C(O)=C1O` [ascorbic acid], the amount of photobleaching in series [1] (785 WS/BRIJ-97 with ascorbic acid (typically 5 mg/mL), after 30 cycles) is given as 20%. In series [1] (added to SDA 8080), the “effect of antioxidant on dye absorbance” value was “destroyed the absorbance in the visible and near-IR region of the dye”. Further, in series [1] (added to virtually any of the surfactants tested with 785 WS), the “effect of antioxidant on photobleaching” value is reported as “reduced photobleaching significantly”. On to `CN(C)c1ccc(C(=C2C=CC(=[N+](C)C)C=C2)c2ccc(N(C)C)cc2)cc1` [crystal violet], for which, on AMPLITAQ DNA polymerase, the “effect of dye alone on PCR” value is listed as “inhibited PCR”.

As for `Cc1cc2nc3cc(C)c(N)cc3[n+](-c3ccccc3)c2cc1N.[Cl-]` [saffranin], the “effect of dye alone on PCR” value on AMPLITAQ DNA polymerase is on record as “inhibited PCR”.

For the compound dichlorophenol, at AMPLITAQ DNA polymerase, the “effect of dye alone on PCR” value is given as “inhibited PCR”.

For the origin of these results see patent US6617136B2, “Biological sample processing methods and compositions that include surfactants” (3M Innovative Properties Company, priority 2001, dated 2003).
